Experimental data from article PMC7838297, “Acyl-CoA thioesterase activity of peroxisomal ABC protein ABCD1 is required for the transport of very long-chain acyl-CoA into peroxisomes” (Scientific Reports, 2021).
Values belong to the compound of their own block, whether it stands above or below them.

Legend:
Assay type in all cases: biochemical
His-ABCD1 (human ABCD1) [1] = biological target: T1, His-ABCD1 (human ABCD1) (Homo sapiens, UniProt P33897); experiment: ATPase, phosphate release; settings: 5 mM ATP, 11 mM MgCl2, pH 7.6, 37 °C; ABCD1-liposomes
T1 construct: full-length, His-tagged (tag kept), expressed in Komagataella phaffii pxa1-delta, beta-DDM-solubilised, metal-chelate purified, reconstituted into soybean PC liposomes; about 80 kDa band

His-KpFAA2 = biological target: T2, His-KpFAA2 (Komagataella phaffii, UniProt F2QZH2); experiment: acyl-CoA synthesis, TLC; settings: 5 mM CoA, 5 mM ATP, 5 mM MgCl2, pH 7.5, 30 °C, 3 h
T2 construct: gene FAA2; His-tagged, expressed in K. phaffii SMD1168, metal-chelate purified as for His-ABCD1
T2 sequence (F2QZH2 1-741): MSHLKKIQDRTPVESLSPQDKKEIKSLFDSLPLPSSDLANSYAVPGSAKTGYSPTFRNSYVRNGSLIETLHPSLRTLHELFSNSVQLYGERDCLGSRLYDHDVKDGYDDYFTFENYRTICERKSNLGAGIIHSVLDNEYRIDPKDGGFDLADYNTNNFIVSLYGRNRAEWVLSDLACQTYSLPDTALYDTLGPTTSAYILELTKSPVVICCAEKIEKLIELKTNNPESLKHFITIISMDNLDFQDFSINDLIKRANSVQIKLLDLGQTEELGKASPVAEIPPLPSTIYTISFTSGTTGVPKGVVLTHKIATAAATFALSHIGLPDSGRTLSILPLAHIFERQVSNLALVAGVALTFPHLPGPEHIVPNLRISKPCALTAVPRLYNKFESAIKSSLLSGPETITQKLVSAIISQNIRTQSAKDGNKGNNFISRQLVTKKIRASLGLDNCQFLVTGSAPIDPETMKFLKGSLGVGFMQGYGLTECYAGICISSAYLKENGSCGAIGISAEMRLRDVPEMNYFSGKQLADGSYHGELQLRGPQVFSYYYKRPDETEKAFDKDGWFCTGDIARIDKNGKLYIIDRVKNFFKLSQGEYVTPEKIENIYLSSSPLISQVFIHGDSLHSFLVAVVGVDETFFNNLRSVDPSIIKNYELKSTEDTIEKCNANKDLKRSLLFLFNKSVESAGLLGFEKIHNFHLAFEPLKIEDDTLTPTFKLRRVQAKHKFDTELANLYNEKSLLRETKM

His-ABCD1 (human ABCD1) [2] = biological target: T1, His-ABCD1 (human ABCD1); experiment: thioesterase assay by TLC; in-gel fluorescence of acylated protein; settings: 1 mM MgCl2, 37 °C; ABCD1-liposomes; covalent acyl (thioester) intermediate
His-ABCD1 (human ABCD1) [3] = biological target: T3, His-ABCD1 (human ABCD1) (Homo sapiens, UniProt P33897, K513A); experiment: as above; settings: 1 mM MgCl2, 37 °C, 30 min; mutant liposomes; covalent acyl intermediate
T3 construct: full-length, His-tagged (tag kept), expressed in Komagataella phaffii pxa1-delta, beta-DDM-solubilised, metal-chelate purified, reconstituted into soybean PC liposomes; about 80 kDa band
T3 sequence (P33897 1-745 K513A): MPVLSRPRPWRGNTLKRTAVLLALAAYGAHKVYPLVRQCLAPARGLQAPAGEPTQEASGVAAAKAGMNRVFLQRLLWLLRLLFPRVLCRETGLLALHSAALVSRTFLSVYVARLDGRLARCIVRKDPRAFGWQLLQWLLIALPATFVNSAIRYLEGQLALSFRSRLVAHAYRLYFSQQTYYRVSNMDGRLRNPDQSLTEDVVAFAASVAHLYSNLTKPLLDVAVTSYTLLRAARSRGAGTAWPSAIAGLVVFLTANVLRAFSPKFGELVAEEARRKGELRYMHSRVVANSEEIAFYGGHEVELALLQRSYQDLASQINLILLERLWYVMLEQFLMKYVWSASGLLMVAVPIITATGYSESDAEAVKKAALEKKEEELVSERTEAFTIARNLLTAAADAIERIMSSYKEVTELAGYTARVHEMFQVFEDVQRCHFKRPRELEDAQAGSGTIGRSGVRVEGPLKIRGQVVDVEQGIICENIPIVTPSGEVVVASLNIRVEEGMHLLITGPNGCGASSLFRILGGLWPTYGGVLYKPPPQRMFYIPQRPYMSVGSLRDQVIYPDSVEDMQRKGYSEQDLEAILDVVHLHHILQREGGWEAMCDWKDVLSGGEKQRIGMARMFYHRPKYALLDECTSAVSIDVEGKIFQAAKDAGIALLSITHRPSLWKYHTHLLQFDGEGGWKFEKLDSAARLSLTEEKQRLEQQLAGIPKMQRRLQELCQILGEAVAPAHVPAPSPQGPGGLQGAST

His-ABCD1 (human ABCD1) [4] = biological target: T1, His-ABCD1 (human ABCD1); experiment: liposome transport assay of NBD-C16, dithionite quench, TLC; settings: read-out: residual NBD-C16 transport at 20 μM

- ATPase, phosphate release (His-ABCD1 (human ABCD1) [1]): ABCD1-liposomes possess ATPase activity
SMILES: Nc1ncnc2c1ncn2[C@@H]1O[C@H](COP(=O)(O)OP(=O)(O)OP(=O)(O)O)[C@@H](O)[C@H]1O [ATP]

SMILES: O=C(O)CCCCCNc1ccc([N+](=O)[O-])c2nonc12 [NBD-C6]
- acyl-CoA synthesis, TLC (His-KpFAA2): NBD-C6) was incubated with purified His-KpFAA2 to generate NBD-hexanoyl-CoA

SMILES: CC(C)(COP(=O)(O)OP(=O)(O)OC[C@H]1O[C@@H](n2cnc3c(N)ncnc32)[C@H](O)[C@@H]1OP(=O)(O)O)[C@@H](O)C(=O)NCCC(=O)NCCSC(=O)CCCCCCCCCCCCCCCNc1ccc([N+](=O)[O-])c2nonc12 [NBD-C16-CoA]
- thioesterase assay by TLC; in-gel fluorescence of acylated protein (His-ABCD1 (human ABCD1) [2]): demonstrating that ABCD1 is covalently labeled by NBD-C16
- thioesterase assay by TLC; in-gel fluorescence of acylated protein (His-ABCD1 (human ABCD1) [3]): these mutants possess ACOT activity comparable to the wild type and exhibited covalent linkage

- remaining activity at 20 µM (His-ABCD1 (human ABCD1) [4]): 3.95 ± 0.7%
SMILES: CCCCCCCCCCCCCCCC(=O)SCCNC(=O)CCNC(=O)[C@H](O)C(C)(C)COP(=O)(O)OP(=O)(O)OC[C@H]1O[C@@H](n2cnc3c(N)ncnc32)[C@H](O)[C@@H]1OP(=O)(O)O [palmitoyl-CoA]
